Results taken from patent US9920032B2, “Heterocyclic compounds useful as pim kinase inhibitors” (Incyte Corporation, priority 2015, dated 2018).
pIC50: −log10 of the molar value.

Assays:
Format in all cases: biochemical
Pim-2 = Pim-2 (Homo sapiens (Human), UniProt Q9P1W9); assay: Pim-2 kinase assay; details: 1 mM ATP; read-out: PIM2 IC50
Outline: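 TR-FRET assay with 1 nM enzyme, 0.05 μM fluorescein-CREBtide and 1 mM ATP in Tris pH 7.5 buffer with MgCl2, DTT, BSA and Tween-20, run 2 h at 25° C. Stopped with EDTA and Tb-labelled anti-CREB pSer133 antibody, then read after 30 min at room temperature.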

Pim-1 = Pim-1 (Homo sapiens (Human), UniProt P11309); assay: Pim-1 kinase assay; details: 1 mM ATP; read-out: PIM1 IC50
Outline: (§1)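 Enzyme at 2.5 pM (Pim-1) or 1.25 pM (Pim-3) reacted 1 h at 25° C with 1 mM ATP and 0.05 μM biotinylated BAD peptide, pH 7.5. Phospho-Ser112 BAD detected by antibody/Protein-A acceptor and streptavidin donor bead proximity signal after EDTA quench and 1 h dark incubation.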

Pim-3 = Pim-3 (Homo sapiens (Human), UniProt Q86V86); assay: Pim-3 kinase assay; details: 1 mM ATP; read-out: PIM3 IC50
Outline: as §1

Sequence of Pim-2 (Q9P1W9 whole entry): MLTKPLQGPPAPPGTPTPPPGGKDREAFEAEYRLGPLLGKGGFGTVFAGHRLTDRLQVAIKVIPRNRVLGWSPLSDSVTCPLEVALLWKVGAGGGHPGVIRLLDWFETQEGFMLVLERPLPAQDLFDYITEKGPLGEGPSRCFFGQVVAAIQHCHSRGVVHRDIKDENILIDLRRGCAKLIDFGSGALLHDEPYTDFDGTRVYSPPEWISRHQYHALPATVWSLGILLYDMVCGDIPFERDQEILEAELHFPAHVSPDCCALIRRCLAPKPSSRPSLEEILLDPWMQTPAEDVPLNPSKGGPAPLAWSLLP
Sequence of Pim-1 (P11309 whole entry): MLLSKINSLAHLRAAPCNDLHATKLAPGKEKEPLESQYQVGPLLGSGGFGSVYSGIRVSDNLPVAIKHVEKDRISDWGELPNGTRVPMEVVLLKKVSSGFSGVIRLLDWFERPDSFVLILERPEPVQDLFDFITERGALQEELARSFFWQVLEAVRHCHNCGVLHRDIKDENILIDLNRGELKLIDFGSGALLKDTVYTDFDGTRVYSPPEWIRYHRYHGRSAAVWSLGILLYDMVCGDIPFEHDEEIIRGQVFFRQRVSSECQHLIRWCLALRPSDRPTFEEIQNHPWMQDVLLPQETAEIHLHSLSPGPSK

Question: With C[C@@H]1C[C@H](N)C[C@H](c2ccncc2NC(=O)c2ccc(F)c3cc(N4CCCCCC4)cnc23)C1 [Example 76, N-(4-((1R,3S,5S)-3-Amino-5-methylcyclohexyl)pyridin-3-yl)-3-(azepan-1-yl)-5-fluoroquinoline-8-carboxamide] as the compound, how does the pIC50 (Pim-2) read?
Answer: ≥ 7.00

Question: What about the pIC50 (Pim-1) of the same compound?
Answer: ≥ 8.00

Question: And the pIC50 (Pim-3)?
Answer: ≥ 8.00

Question: What does the source list for CCn1cc(-c2cnc3c(C(=O)Nc4cnccc4[C@@H]4C[C@H](C)C[C@H](N)C4)ccc(F)c3c2)cn1 [Example 62, N-(4-((1R,3S,5S)-3-Amino-5-methylcyclohexyl)pyridin-3-yl)-3-(1-ethyl-1H-pyrazol-4-yl)-5-fluoroquinoline-8-carboxamide]?
Answer: pIC50 (Pim-2): 6.00 to 7.00; pIC50 (Pim-1): ≥ 8.00; pIC50 (Pim-3): ≥ 8.00

Question: What does the source list for C[C@@H]1C[C@H](N)C[C@H](c2ccncc2NC(=O)c2ccc(F)c3cc(N4CCc5cnn(C)c5C4)cnc23)C1 [Example 127, N-(4-((1R,3S,5S)-3-Amino-5-methylcyclohexyl)pyridin-3-yl)-5-fluoro-3-(1-methyl-4,5-dihydro-1H-pyrazolo[3,4-c]pyridin-6(7H)-yl)quinoline-8-carboxamide]?
Answer: pIC50 (Pim-2): ≥ 7.00; pIC50 (Pim-1): ≥ 8.00; pIC50 (Pim-3): ≥ 8.00

Question: C[C@@H]1C[C@H](N)C[C@H](c2ccncc2NC(=O)c2cccc3cc(N4CCC[C@@H]4C)cnc23)C1 [Example 69, N-(4-((1R,3S,5S)-3-Amino-5-methylcyclohexyl)pyridin-3-yl)-3-((S)-2-methylpyrrolidin-1-yl)quinoline-8-carboxamide] was tested. Which pIC50 (Pim-2) did it give?
Answer: ≥ 7.00

Question: And the pIC50 (Pim-1)?
Answer: ≥ 8.00

Question: And the pIC50 (Pim-3)?
Answer: ≥ 8.00

Question: How did the pIC50 (Pim-2) turn out when C[C@@H]1C[C@H](N)C[C@H](c2ccncc2NC(=O)c2ccc(F)c3cc(-c4cnn(C)c4)cnc23)C1 [Example 64, N-(4-((1R,3S,5S)-3-Amino-5-methylcyclohexyl)pyridin-3-yl)-5-fluoro-3-(1-methyl-1H-pyrazol-4-yl)quinoline-8-carboxamide] was run?
Answer: 6.00 to 7.00

Question: And the pIC50 (Pim-1)?
Answer: ≥ 8.00

Question: What about the pIC50 (Pim-3) of the same compound?
Answer: ≥ 8.00

Question: CC1CN(c2cnc3c(C(=O)Nc4cnccc4[C@@H]4C[C@H](C)C[C@H](N)C4)ccc(F)c3c2)CC(C)O1 (stereo partly drawn) [Example 37, N-(4-((1R,3S,5S)-3-Amino-5-methylcyclohexyl)pyridin-3-yl)-3-(2,6-dimethylmorpholino)-5-fluoroquinoline-8-carboxamide] was tested. Which pIC50 (Pim-2) did it give?
Answer: 5.00 to 6.00

Question: What about the pIC50 (Pim-1) of the same compound?
Answer: ≥ 8.00

Question: What about the pIC50 (Pim-3) of the same compound?
Answer: 7.30 to 8.00

Question: What does the source list for C[C@@H]1C[C@H](N)C[C@H](c2ccncc2NC(=O)c2ccc(F)c3cc(N4CC(=O)N(C)C[C@H]4C)cnc23)C1 [Example 99, N-(4-((1R,3S,5S)-3-Amino-5-methylcyclohexyl)pyridin-3-yl)-3-((R)-2,4-dimethyl-5-oxopiperazin-1-yl)-5-fluoroquinoline-8-carboxamide]?
Answer: pIC50 (Pim-2): ≥ 7.00; pIC50 (Pim-1): ≥ 8.00; pIC50 (Pim-3): ≥ 8.00

Question: Which results are given for C[C@@H]1C[C@H](N)C[C@H](c2ccncc2NC(=O)c2ccc(F)c3cc(N4CC[C@H](C#N)C4)cnc23)C1 [Example 7, N-{4-[(1R,3S,5S)-3-Amino-5-methylcyclohexyl]pyridin-3-yl}-3-[(3S)-3-cyanopyrrolidin-1-yl]-5-fluoroquinoline-8-carboxamide]?
Answer: pIC50 (Pim-2): ≥ 7.00; pIC50 (Pim-1): ≥ 8.00; pIC50 (Pim-3): ≥ 8.00

Question: How did the pIC50 (Pim-2) turn out when CC(C)[C@@H](C)Nc1cnc2c(C(=O)Nc3cnccc3[C@@H]3C[C@H](C)C[C@H](N)C3)ccc(F)c2c1 [Example 54, N-(4-((1R,3S,5S)-3-amino-5-methylcyclohexyl)pyridin-3-yl)-5-fluoro-3-((R)-3-methylbutan-2-ylamino)quinoline-8-carboxamide] was run?
Answer: 6.00 to 7.00

Question: What about the pIC50 (Pim-1) of the same compound?
Answer: ≥ 8.00

Question: And the pIC50 (Pim-3)?
Answer: ≥ 8.00

Question: Which results are given for CC1CCN(c2cnc3c(C(=O)Nc4cnccc4[C@@H]4C[C@H](C)C[C@H](N)C4)ccc(F)c3c2)CC1 [Example 46, N-(4-((1R,3S,5S)-3-Amino-5-methylcyclohexyl)pyridin-3-yl)-5-fluoro-3-(4-methylpiperidin-1-yl)quinoline-8-carboxamide]?
Answer: pIC50 (Pim-2): 6.00 to 7.00; pIC50 (Pim-1): ≥ 8.00; pIC50 (Pim-3): ≥ 8.00

Question: C[C@@H]1C[C@H](N)C[C@H](c2ccncc2NC(=O)c2ccc(F)c3cc(Nc4ccccc4F)cnc23)C1 [Example 125, N-(4-((1R,3S,5S)-3-Amino-5-methylcyclohexyl)pyridin-3-yl)-5-fluoro-3-(2-fluorophenylamino)quinoline-8-carboxamide] was tested. Which pIC50 (Pim-2) did it give?
Answer: ≥ 7.00

Question: And the pIC50 (Pim-1)?
Answer: ≥ 8.00

Question: And the pIC50 (Pim-3)?
Answer: ≥ 8.00

Question: C[C@@H]1C[C@H](N)C[C@H](c2ccncc2NC(=O)c2ccc(F)c3cc(N(C)C)cnc23)C1 [Example 25, N-{4-[(1R,3S,5S)-3-Amino-5-methylcyclohexyl]pyridin-3-yl}-3-(dimethylamino)-5-fluoroquinoline-8-carboxamide] was tested. Which pIC50 (Pim-2) did it give?
Answer: ≥ 7.00

Question: What about the pIC50 (Pim-1) of the same compound?
Answer: ≥ 8.00

Question: And the pIC50 (Pim-3)?
Answer: ≥ 8.00

Question: What does the source list for CC(C)N1CCN(c2cnc3c(C(=O)Nc4cnccc4[C@@H]4C[C@H](C)C[C@H](N)C4)ccc(F)c3c2)CC1=O [Example 115, N-(4-((1R,3S,5S)-3-Amino-5-methylcyclohexyl)pyridin-3-yl)-5-fluoro-3-(4-isopropyl-3-oxopiperazin-1-yl)quinoline-8-carboxamide]?
Answer: pIC50 (Pim-2): ≥ 7.00; pIC50 (Pim-1): ≥ 8.00; pIC50 (Pim-3): ≥ 8.00

Question: With C[C@@H]1C[C@H](N)C[C@H](c2ccncc2NC(=O)c2ccc(F)c3cc(N4CC5COCC5C4)cnc23)C1 (stereo partly drawn) [Example 110, N-(4-((1R,3S,5S)-3-Amino-5-methylcyclohexyl)pyridin-3-yl)-3-(dihydro-1H-furo[3,4-c]pyrrol-5(3H,6H,6aH)-yl)-5-fluoroquinoline-8-carboxamide] as the compound, how does the pIC50 (Pim-2) read?
Answer: ≥ 7.00

Question: What about the pIC50 (Pim-1) of the same compound?
Answer: ≥ 8.00

Question: And the pIC50 (Pim-3)?
Answer: ≥ 8.00

Question: C[C@@H]1C[C@H](N)C[C@H](c2ccncc2NC(=O)c2ccc(F)c3cc(N4CCN5C(=O)CCC5C4)cnc23)C1 (stereo partly drawn) [Example 84, N-(4-((1R,3S,5S)-3-Amino-5-methylcyclohexyl)pyridin-3-yl)-5-fluoro-3-(6-oxohexahydropyrrolo[1,2-a]pyrazin-2(1H)-yl)quinoline-8-carboxamide] was tested. Which pIC50 (Pim-2) did it give?
Answer: 6.00 to 7.00

Question: And the pIC50 (Pim-1)?
Answer: ≥ 8.00

Question: What about the pIC50 (Pim-3) of the same compound?
Answer: ≥ 8.00

Question: C[C@@H]1C[C@H](N)C[C@H](c2ccncc2NC(=O)c2ccc(F)c3cc(N4CCN(S(C)(=O)=O)C[C@@H]4C)cnc23)C1 [Example 85, N-(4-((1R,3S,5S)-3-Amino-5-methylcyclohexyl)pyridin-3-yl)-5-fluoro-3-((S)-2-methyl-4-(methylsulfonyl)piperazin-1-yl)quinoline-8-carboxamide] was tested. Which pIC50 (Pim-2) did it give?
Answer: 6.00 to 7.00

Question: What about the pIC50 (Pim-1) of the same compound?
Answer: ≥ 8.00

Question: And the pIC50 (Pim-3)?
Answer: ≥ 8.00

Question: With C[C@@H]1C[C@H](N)C[C@H](c2ccncc2NC(=O)c2ccc(F)c3cc(N(C)C4CCC4)cnc23)C1 [Example 24, N-{4-[(1R,3S,5S)-3-Amino-5-methylcyclohexyl]pyridin-3-yl}-3-[cyclobutyl(methyl)amino]-5-fluoroquinoline-8-carboxamide] as the compound, how does the pIC50 (Pim-2) read?
Answer: 6.00 to 7.00

Question: What about the pIC50 (Pim-1) of the same compound?
Answer: ≥ 8.00

Question: What about the pIC50 (Pim-3) of the same compound?
Answer: ≥ 8.00

Question: With C[C@@H]1C[C@H](N)C[C@H](c2ccncc2NC(=O)c2ccc(F)c3cc(N4CCC(C#N)CC4)cnc23)C1 [Example 45, N-(4-((1R,3S,5S)-3-Amino-5-methylcyclohexyl)pyridin-3-yl)-3-(4-cyanopiperidin-1-yl)-5-fluoroquinoline-8-carboxamide] as the compound, how does the pIC50 (Pim-2) read?
Answer: 6.00 to 7.00

Question: And the pIC50 (Pim-1)?
Answer: ≥ 8.00

Question: And the pIC50 (Pim-3)?
Answer: 7.30 to 8.00

Question: C[C@@H]1C[C@H](N)C[C@H](c2ccncc2NC(=O)c2ccc(F)c3cc(N4CCSCC4)cnc23)C1 [Example 73, N-(4-((1R,3S,5S)-3-Amino-5-methylcyclohexyl)pyridin-3-yl)-5-fluoro-3-thiomorpholinoquinoline-8-carboxamide] was tested. Which pIC50 (Pim-2) did it give?
Answer: ≥ 7.00

Question: And the pIC50 (Pim-1)?
Answer: ≥ 8.00

Question: And the pIC50 (Pim-3)?
Answer: ≥ 8.00
